Experimental data: patent publication US9949981B2, “Compositions and methods for treating proliferation disorders” (Arqule, Inc., priority 2014, dated 2018)
Like-named read-outs stand apart in the source and are kept apart here. Values belong to the molecule of their own block, whether it stands above or below them.

Key:
[1] = system: pPRAS40 in KU-19-19 (E17K) mutant bladder cancer cells; assay: pPRAS40 in KU-19-19 cells, two hour treatment; conditions: normal medium, 2 hours, FIGS. 17 and 18
[2] = system: pAKT in KU-19-19 (E17K) mutant bladder cancer cells; assay: pAKT in KU-19-19 cells, two hour treatment; conditions: normal medium, 2 hours, FIGS. 17 and 18
[3] = system: S6 phosphorylation in Proteus single cell clones; conditions: F6B mutation positive and H4A mutation negative clones; with or without serum; FIGS. 16A and 16B
[4] = system: Proteus single cell clones (A6B AKT1 p.E17K positive and E8F9A mutation negative cells); assay: Viability of Proteus single cell clones; format: cell-based, human; conditions: presence or absence of serum; 24 hours serum starvation; 72 hours; FIGS. 5A and 5B
[5] = system: AKT1 phosphorylation in Proteus single cell clones; conditions: FIG. 15
[6] = biological target: AKT1 (Homo sapiens, UniProt P31749); assay: Inactive AKT Alpha Screen Assay
AKT1, sequence (P31749 whole entry): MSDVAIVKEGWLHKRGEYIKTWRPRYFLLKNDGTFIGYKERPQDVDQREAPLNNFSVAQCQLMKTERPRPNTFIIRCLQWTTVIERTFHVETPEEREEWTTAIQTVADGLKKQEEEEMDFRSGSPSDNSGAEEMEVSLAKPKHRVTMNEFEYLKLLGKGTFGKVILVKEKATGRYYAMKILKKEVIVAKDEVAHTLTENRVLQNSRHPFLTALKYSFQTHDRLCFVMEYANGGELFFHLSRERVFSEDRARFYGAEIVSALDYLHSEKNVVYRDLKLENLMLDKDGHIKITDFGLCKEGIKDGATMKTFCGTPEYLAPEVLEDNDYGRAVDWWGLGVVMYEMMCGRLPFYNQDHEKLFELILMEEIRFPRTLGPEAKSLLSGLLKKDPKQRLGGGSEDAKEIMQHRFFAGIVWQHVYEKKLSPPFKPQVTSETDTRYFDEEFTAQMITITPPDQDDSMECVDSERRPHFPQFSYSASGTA

SMILES: NC1(c2ccc(-c3nc4ccn5c(=O)[nH]nc5c4cc3-c3ccccc3)cc2)CCC1 [MK-2206, reference compound]
- pPRAS40 [1]: inhibit
- pAKT [2]: inhibit

SMILES: CO[C@H]1C[C@@H]2CC[C@@H](C)[C@@](O)(O2)C(=O)C(=O)N2CCCC[C@H]2C(=O)O[C@H]([C@H](C)C[C@@H]2CC[C@@H](OCCO)[C@H](OC)C2)CC(=O)[C@H](C)/C=C(\C)[C@@H](O)[C@@H](OC)C(=O)[C@H](C)C[C@H](C)/C=C/C=C/C=C/1C [everolimus]
- pS6 levels [3]: greatly decreases pS6 levels
- viability of Proteus single cell clones [4]: mutation positive cells are more sensitive than control cells
- pAKT/AKT ratio ([5]; F6B AKT1 p.E17K mutant cells in serum free conditions): decreases the pAKT/AKT ratio
- pAKT/AKT ratio ([5]; mutant negative cells (H4A) or mutant cells gown in serum free conditions): has no effect or increases the ratio

- IC50 [6]: 2.2 nM
SMILES: Nc1ncccc1-c1nc2ccc(-c3cccc(N4CCOCC4)c3)nc2n1-c1ccc(C2(N)CCC2)cc1 [Compound 2, 3-(3-(4-(1-aminocyclobutyl)phenyl)-5-(3-morpholinophenyl)-3H-imidazo[4,5-b]pyridin-2-yl)pyridin-2-amine]
